Activity calls are given as the source filed them. No rule for the calls is given here.
System: CCRIS mutagenicity, Ames/micronucleus/aberration tests
Assay: CCRIS mutagenicity studies

SMILES: Nc1ccc(-c2ccc(N)cc2)cc1
- mutagenic call (Test System: AMES SALMONELLA TYPHIMURIUM, Strain/Indicator: TA100, Metabolic Activation: RAT, BLADDER, S-9, PCB, Method: FLUCTUATION TEST): active; positive
- mutagenic call (Test System: AMES SALMONELLA TYPHIMURIUM, Strain/Indicator: TA100, Metabolic Activation: S-9, Method: STANDARD PLATE): inactive; negative
- mutagenic call (Test System: AMES SALMONELLA TYPHIMURIUM, Strain/Indicator: TA100, Metabolic Activation: TOBACCO CELL-FREE TXIMX, Method: PREINCUBATION): inactive; negative
- mutagenic call (Test System: AMES SALMONELLA TYPHIMURIUM, Strain/Indicator: TA1538, Metabolic Activation: GUINEA PIG, LIVER, INTACT HEPATOCYTES, Method: PREINCUBATION): active; positive
- mutagenic call (Test System: AMES SALMONELLA TYPHIMURIUM, Strain/Indicator: TA1538, Metabolic Activation: GUINEA PIG, LIVER, S-9, ACETYL COENZYME A, Method: PREINCUBATION): active; positive
- mutagenic call (Test System: AMES SALMONELLA TYPHIMURIUM, Strain/Indicator: TA1538, Metabolic Activation: GUINEA PIG, LIVER, S-9, Method: PREINCUBATION): active; positive
- mutagenic call (Test System: AMES SALMONELLA TYPHIMURIUM, Strain/Indicator: TA1538, Metabolic Activation: HAMSTER, LIVER, INTACT HEPATOCYTES, Method: PREINCUBATION): active; positive
- mutagenic call (Test System: AMES SALMONELLA TYPHIMURIUM, Strain/Indicator: TA1538, Metabolic Activation: HAMSTER, LIVER, S-9, ACETYL COENZYME A, Method: PREINCUBATION): active; positive
- mutagenic call (Test System: AMES SALMONELLA TYPHIMURIUM, Strain/Indicator: TA1538, Metabolic Activation: HAMSTER, LIVER, S-9, Method: PREINCUBATION): active; positive
- mutagenic call (Test System: AMES SALMONELLA TYPHIMURIUM, Strain/Indicator: TA1538, Metabolic Activation: HAMSTER, LIVER, S-9, Method: STANDARD PLATE): active; positive
- mutagenic call (Test System: AMES SALMONELLA TYPHIMURIUM, Strain/Indicator: TA1538, Metabolic Activation: RAT, LIVER, INTACT HEPATOCYTES, Method: PREINCUBATION): active; positive
- mutagenic call (Test System: AMES SALMONELLA TYPHIMURIUM, Strain/Indicator: TA1538, Metabolic Activation: RAT, LIVER, S-9, ACETYL COENZYME A, Method: PREINCUBATION): active; positive
- mutagenic call (Test System: AMES SALMONELLA TYPHIMURIUM, Strain/Indicator: TA1538, Metabolic Activation: RAT, LIVER, S-9, AROCLOR 1254, Method: STANDARD PLATE): active; positive
- mutagenic call (Test System: AMES SALMONELLA TYPHIMURIUM, Strain/Indicator: TA1538, Metabolic Activation: RAT, LIVER, S-9, PHENOBARBITAL, Method: STANDARD PLATE): active; positive
- mutagenic call (Test System: AMES SALMONELLA TYPHIMURIUM, Strain/Indicator: TA1538, Metabolic Activation: RAT, LIVER, S-9, Method: PREINCUBATION): active; positive
- mutagenic call (Test System: AMES SALMONELLA TYPHIMURIUM, Strain/Indicator: YG1021, Metabolic Activation: TOBACCO CELL-FREE TXIMX, Method: PREINCUBATION): active; positive
- mutagenic call (Test System: AMES SALMONELLA TYPHIMURIUM, Strain/Indicator: YG1021, Metabolic Activation: TOBACCO TX1 CELLS, Method: PREINCUBATION): active; positive
- mutagenic call (Test System: AMES SALMONELLA TYPHIMURIUM, Strain/Indicator: YG1024, Metabolic Activation: HUMAN, HEPATOMA CELLS, BENZO[A]ANTHRACENE, Method: PREINCUBATION): active; positive
- mutagenic call (Test System: AMES SALMONELLA TYPHIMURIUM, Strain/Indicator: YG1024, Metabolic Activation: HUMAN, HEPATOMA CELLS, Method: PREINCUBATION): active; positive
- mutagenic call (Test System: AMES SALMONELLA TYPHIMURIUM, Strain/Indicator: YG1024, Metabolic Activation: PLANT CELLS, Method: PREINCUBATION): active; positive
- mutagenic call (Test System: AMES SALMONELLA TYPHIMURIUM, Strain/Indicator: YG1024, Metabolic Activation: RAT, LIVER, S-9, AROCLOR 1254, Method: PREINCUBATION): active; positive
- mutagenic call (Test System: AMES SALMONELLA TYPHIMURIUM, Strain/Indicator: YG1024, Metabolic Activation: RAT, LIVER, S-9, Method: PREINCUBATION): active; positive
- mutagenic call (Test System: AMES SALMONELLA TYPHIMURIUM, Strain/Indicator: YG1024, Metabolic Activation: TOBACCO CELL-FREE EXTRACT, Method: PREINCUBATION): active; positive
- mutagenic call (Test System: AMES SALMONELLA TYPHIMURIUM, Strain/Indicator: YG1024, Metabolic Activation: TOBACCO CELL-FREE TXIMX, Method: PREINCUBATION): active; positive
- mutagenic call (Test System: AMES SALMONELLA TYPHIMURIUM, Strain/Indicator: YG1024, Metabolic Activation: TOBACCO TX1 CELLS, Method: PREINCUBATION): active; positive
- mutagenic call (Test System: AMES SALMONELLA TYPHIMURIUM, Strain/Indicator: YG1026, Metabolic Activation: TOBACCO CELL-FREE TXIMX, Method: PREINCUBATION): inactive; negative
- mutagenic call (Test System: AMES SALMONELLA TYPHIMURIUM, Strain/Indicator: YG1026, Metabolic Activation: TOBACCO TX1 CELLS, Method: PREINCUBATION): inactive; negative
- mutagenic call (Test System: AMES SALMONELLA TYPHIMURIUM, Strain/Indicator: YG1029, Metabolic Activation: TOBACCO CELL-FREE TXIMX, Method: PREINCUBATION): active; positive
- mutagenic call (Test System: AMES SALMONELLA TYPHIMURIUM, Strain/Indicator: YG1029, Metabolic Activation: TOBACCO TX1 CELLS, Method: PREINCUBATION): active; positive
- mutagenic call (Test System: Ames Salmonella typhimurium, Strain/Indicator: TA98, Metabolic Activation: Rat, Liver, S-9, Sodium phenobarbitone, Method: Preincubation): active; positive, test conducted under both aerobic and anaerobic conditions.
- mutagenic call (Test System: Ames Salmonella typhimurium, Strain/Indicator: TA102, Metabolic Activation: None, Method: Preincubation): inactive; negative
- mutagenic call (Test System: Ames Salmonella typhimurium, Strain/Indicator: TA102, Metabolic Activation: Rat, Liver, S-9, Aroclor 1254 in 0.154 M KCl, Method: Preincubation): active; positive (coumestrol, ellagic acid, (-) epicatechin, (-) epichatechingallate, ga
- mutagenic call (Test System: Ames Salmonella typhimurium, Strain/Indicator: TA102, Metabolic Activation: Rat, liver, S-9, Aroclor 1254, 4%, Method: Preincubation): active; positive
- mutagenic call (Test System: Ames Salmonella typhimurium, Strain/Indicator: TA1538, Metabolic Activation: Rat, Liver, S-9, Sodium phenobarbitone, Method: Preincubation): active; positive, test conducted under both aerobic and anaerobic conditions.
- mutagenic call (Test System: CHINESE HAMSTER OVARY, Strain/Indicator: CHO-K1-BH4 (HGPRT)/6-THIOGUANINE, Metabolic Activation: RAT, LIVER, S-9, Method: SUSPENSION/PLATE): inactive; negative
- mutagenic call (Test System: CHINESE HAMSTER OVARY, Strain/Indicator: CHO-K1-BH4 (HGPRT), Metabolic Activation: RAT, LIVER, S-9, AROCLOR, Method: SUSPENSION/PLATE): active; positive
- mutagenic call (Test System: CHINESE HAMSTER V-79, Strain/Indicator: V-79/6-THIOGUANINE, Metabolic Activation: MOUSE, LIVER, S-9, Method: SUSPENSION/PLATE): active; positive
- mutagenic call (Test System: CHINESE HAMSTER V-79, Strain/Indicator: V-79/6-THIOGUANINE, Metabolic Activation: NONE, Method: SUSPENSION/PLATE): inactive; negative
- mutagenic call (Test System: CHINESE HAMSTER V-79, Strain/Indicator: V-79/6-THIOGUANINE, Metabolic Activation: RAT, LIVER, S-9, AROCLOR 1254, Method: SUSPENSION/PLATE): inactive; negative
- mutagenic call (Test System: CHINESE HAMSTER V-79, Strain/Indicator: V-79/6-THIOGUANINE, Metabolic Activation: RAT, LIVER, S-9, PHENOBARBITAL AND BETA-NAPHTHOFLAVONE, Method: SUSPENSION/PLATE): inactive; negative
- mutagenic call (Test System: MOUSE LYMPHOMA, Strain/Indicator: L5178Y (HGPRT)/6-THIOGUANINE, Metabolic Activation: NONE, Method: SUSPENSION/PLATE): inactive; negative
- mutagenic call (Test System: MOUSE LYMPHOMA, Strain/Indicator: L5178Y (HGPRT)/6-THIOGUANINE, Metabolic Activation: RAT, LIVER, S-9, AROCLOR 1254, Method: SUSPENSION/PLATE): inactive; negative
- mutagenic call (Test System: MOUSE LYMPHOMA, Strain/Indicator: L5178Y (HPRT), Metabolic Activation: NONE, Method: SUSPENSION/PLATE): inactive; negative
- mutagenic call (Test System: MOUSE LYMPHOMA, Strain/Indicator: L5178Y (TK+/TK-)/TRIFLUOROTHYMIDINE, Metabolic Activation: NONE, Method: SUSPENSION/PLATE): active; positive
- mutagenic call (Test System: MOUSE LYMPHOMA, Strain/Indicator: L5178Y (TK+/TK-)/TRIFLUOROTHYMIDINE, Metabolic Activation: RAT, LIVER, S-9, AROCLOR 1254, Method: SUSPENSION/PLATE): active; positive
- mutagenic call (Test System: MOUSE LYMPHOMA, Strain/Indicator: L5178Y (TK+/TK-), Metabolic Activation: NONE, Method: SUSPENSION/PLATE): active; positive
- mutagenic call (Test System: MOUSE LYMPHOMA, Strain/Indicator: L5178Y (TK+/TK-), Metabolic Activation: RAT, LIVER, S-9, AROCLOR 1254, Method: SUSPENSION/PLATE): active; positive
- mutagenic call (Test System: MOUSE LYMPHOMA, Strain/Indicator: L5178Y (TK+/TK-), Metabolic Activation: S-9, Method: SUSPENSION/PLATE): active; positive
- mutagenic call (Test System: UDS RODENT HEPATOCYTES, Strain/Indicator: THY INCORP (NON-S-PHASE), Method: AUTORADIOGRAPHY): active; positive
